From PMC8634379, “From the Design to the In Vivo Evaluation of Benzohomoadamantane-Derived Soluble Epoxide Hydrolase Inhibitors for the Treatment of Acute Pancreatitis” (Journal of Medicinal Chemistry, 2021) come the findings set out here.

Where two headings read alike, the source gives them in different places.

The nature of data set [1]: Concentrations in plasma and pancreatic tissue in the efficacy study. The data set is classed as in vivo, C57BL/6 male mice. The following applies: 10 h post-administration; for concentration at 10 h: male, C57BL/6, mouse, intraperitoneal. From the text:
During the experimental procedure, the animals were identified with a permanent marker (tail code numbers). […] They underwent a period of 7 days of acclimatization between the date of arrival and the start of the procedure. […] Diet was provided to the animals ad libitum, but they were fasted overnight before the first cerulein injection, and food was replaced after the last cerulein injection. Tap water was supplied by CASSA (Servei d’Aigües de Sabadell) ad libitum. […] Ministry of agriculture, livestock and fishing of the Autonomous Government of Catalonia, Spain. […] The vehicle was prepared the day before and kept at 4 °C. Pancreatitis induction: Mice (n = 41) were weighed, identified by a distinct number at the base of the tail, and fasted overnight. Cerulein (cerulein and cerulein + 22 groups) (50 μg/kg, prepared in 0.9% NaCl) or vehicle (0.9% NaCl) (control group) were intraperitoneally injected (V = 5 mL/kg) 12 consecutive times, at 1 h intervals (h = 0–11). Food was replaced after the last injection. A satellite experiment was designed where animals (n = 3) were distributed in control, cerulein, and cerulein + 22-treated groups. Pancreatitis was induced by seven injections of cerulein (or vehicle in the control group) at 1 h intervals (h = 0–6). […] Animals from the control and cerulein groups received vehicle administration (10% 2-hydroxypropyl-β-cyclodextrin) (V = 10 mL/kg). Extra groups were treated 2 h after the first cerulein injection: 22 (0.3 mg/kg), control, and cerulein groups (10% 2-hydroxypropyl-β-cyclodextrin). […] Blood was collected from the vena cava in an Eppendorf containing K2-EDTA and centrifuged at 10,000 rpm for 5 min for plasma collection. Plasma was stored at −80 °C until analysis. The mice were sacrificed by cervical dislocation and the pancreases were dissected and weighed. Pancreases from three animals were frozen in liquid N2 and stored at −80 °C until analysis. Pancreases from five mice were sectioned and one part was placed in 10% formalin and sent to Anapath (Granada, Spain) for histology analysis and the other was immediately placed in RNAse-free eppendorfs, frozen in N2, and stored at −80 °C for gene expression assays.

The target in the next data set is T1, CYP 1A2 (Homo sapiens, UniProt P05177).
T1 sequence (P05177 1-516): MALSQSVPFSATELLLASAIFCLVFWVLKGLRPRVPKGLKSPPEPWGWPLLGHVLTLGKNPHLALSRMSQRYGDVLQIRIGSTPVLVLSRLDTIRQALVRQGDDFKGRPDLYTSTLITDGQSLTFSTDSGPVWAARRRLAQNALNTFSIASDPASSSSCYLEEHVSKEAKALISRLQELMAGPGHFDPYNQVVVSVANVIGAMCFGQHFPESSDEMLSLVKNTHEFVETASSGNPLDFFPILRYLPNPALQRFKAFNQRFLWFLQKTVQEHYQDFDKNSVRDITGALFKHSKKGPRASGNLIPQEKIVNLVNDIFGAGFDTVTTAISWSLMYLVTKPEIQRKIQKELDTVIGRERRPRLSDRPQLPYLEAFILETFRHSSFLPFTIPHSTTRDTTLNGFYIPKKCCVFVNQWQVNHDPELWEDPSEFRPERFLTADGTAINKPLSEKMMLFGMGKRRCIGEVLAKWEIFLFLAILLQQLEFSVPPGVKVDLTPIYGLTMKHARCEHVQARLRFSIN
Briefly: Cytochrome P450 inhibition, fluorescence detection. The data set is classed as in vitro ADME. The settings on record: at 10 μM.

Turning to `O=C(NC12CC3CC(Cl)(CC(C1)c1ccccc13)C2)N[C@H]1CC[C@H](Oc2ccc(C(=O)O)cc2)CC1` [Compound 22, 4-[((1r,4r)-4-(3-(9-Chloro-5,6,8,9,10,11-hexahydro-7H-5,9:7,11-dimethanobenzo[9]annulen-7-yl)ureido)cyclohexyl)oxy]benzoic Acid], the “concentration in pancreatic tissues” value in data set [1] (0.1 mg/kg IP) is “no amount of 22 was detected”. Besides, the concentration at 10 h in data set [1] (pancreas, 0.3 mg/kg IP, read-out: concentration in pancreas) was determined as 29.9 ng/g; in data set [1] (plasma, 0.1 mg/kg IP, read-out: plasma level), 14 nM; in data set [1] (plasma, 0.3 mg/kg IP, read-out: plasma level) it was 175 nM. The “CYP 1A2 inhibition” value on CYP 1A2 was 14 ± 4%.
As for `CC12CC3CC(NC(=O)N[C@H]4CC[C@H](Oc5ccc(C(=O)O)cc5)CC4)(CC(C1)c1ccccc13)C2` [Compound 20, 4-[((1r,4r)-4-(3-(9-Methyl-5,6,8,9,10,11-Hexahydro-7H-5,9:7,11-dimethanobenzo[9]annulen-7-yl)ureido)cyclohexyl)oxy]benzoic Acid], the “CYP 1A2 inhibition” value on CYP 1A2 worked out at 1 ± 2%.
